According to ChEMBL document CHEMBL1138410, “SAR studies of 3-arylpropionic acids as potent and selective agonists of sphingosine-1-phosphate receptor-1 (S1P1) with enhanced pharmacokinetic properties” (Bioorg Med Chem Lett, 2007):
Values joined by “and” are separate entries in the source; they are usually repeats but may differ in a detail not shown here. Equal values may be shown once.

Biological target: Sphingosine 1-phosphate receptor 5 (Homo sapiens, UniProt Q9H228)
Test: […] of [35S]GTP-gamma-S from human S1P5 receptor expressed in CHO cells
Assay type: functional, cell-based
Conditions: not given

Sequence of Sphingosine 1-phosphate receptor 5 (Q9H228 whole entry): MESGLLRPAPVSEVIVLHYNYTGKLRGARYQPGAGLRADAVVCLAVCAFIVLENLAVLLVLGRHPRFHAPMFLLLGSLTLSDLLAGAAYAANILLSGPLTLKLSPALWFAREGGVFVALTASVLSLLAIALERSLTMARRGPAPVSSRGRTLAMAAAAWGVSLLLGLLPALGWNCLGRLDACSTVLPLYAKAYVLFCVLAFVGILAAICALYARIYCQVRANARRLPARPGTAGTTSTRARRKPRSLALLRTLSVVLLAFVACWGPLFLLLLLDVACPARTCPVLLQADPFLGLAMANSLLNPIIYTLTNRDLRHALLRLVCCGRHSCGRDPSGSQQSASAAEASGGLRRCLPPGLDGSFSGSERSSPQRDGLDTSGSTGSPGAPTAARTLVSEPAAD

Compound | EC50 [nM]
Cc1cc(CC(C)C(=O)O)ccc1-c1noc(-c2ccc(OC(C)C)c(C(F)(F)F)c2)n1 (stereo not drawn) | 9.9
Cc1nc(CCC(=O)O)ccc1-c1noc(-c2ccc(OC(C)C)c(C#N)c2)n1 | 28.6
Cc1cc([C@H]2C[C@H]2C(=O)O)ccc1-c1noc(-c2ccc(OC(C)C)c(C#N)c2)n1 | 37.7
Cc1cc(C(C)CC(=O)O)ccc1-c1noc(-c2ccc(OC(C)C)c(C(F)(F)F)c2)n1 (stereo not drawn) | 3.9
Cc1cc([C@@H]2C[C@H]2C(=O)O)ccc1-c1noc(-c2ccc(OC(C)C)c(C(F)(F)F)c2)n1 | 5.1

Tested on: Mus musculus
Test: Effect on peripheral lymphocyte lowering in orally dosed mouse
Assay type: functional
Conditions: not given

Compound | ED50 [mg/kg]
Cc1cc([C@@H]2C[C@H]2C(=O)O)ccc1-c1noc(-c2ccc(OC(C)C)c(C#N)c2)n1 | 0.2

Same assay, conditions: Mus musculus, po; read-out: ED50

Compound | ED50 [mg/kg]
Cc1cc(CCC(=O)O)ccc1-c1noc(-c2ccc(OC(C)C)c(C(F)(F)F)c2)n1 | 0.3
Cc1cc(CCC(=O)O)ccc1-c1noc(-c2ccc(OC(C)C)c(C#N)c2)n1 | 0.1
Cc1cc(CC(C)C(=O)O)ccc1-c1noc(-c2ccc(OC(C)C)c(C(F)(F)F)c2)n1 (stereo not drawn) | 0.1
Cc1nc(CCC(=O)O)ccc1-c1noc(-c2ccc(OC(C)C)c(C#N)c2)n1 | 0.2
Cc1cc([C@H]2C[C@H]2C(=O)O)ccc1-c1noc(-c2ccc(OC(C)C)c(C#N)c2)n1 | 0.7
Cc1cc([C@@H]2C[C@H]2C(=O)O)ccc1-c1noc(-c2ccc(OC(C)C)c(C#N)c2)n1 | 0.3
Cc1cc(C(C)CC(=O)O)ccc1-c1noc(-c2ccc(OC(C)C)c(C(F)(F)F)c2)n1 (stereo not drawn) | 0.1
Cc1cc([C@@H]2C[C@H]2C(=O)O)ccc1-c1noc(-c2ccc(OC(C)C)c(C(F)(F)F)c2)n1 | 0.2

Biological target: Sphingosine 1-phosphate receptor 1 (Homo sapiens, UniProt P21453)
Sequence (P21453 whole entry): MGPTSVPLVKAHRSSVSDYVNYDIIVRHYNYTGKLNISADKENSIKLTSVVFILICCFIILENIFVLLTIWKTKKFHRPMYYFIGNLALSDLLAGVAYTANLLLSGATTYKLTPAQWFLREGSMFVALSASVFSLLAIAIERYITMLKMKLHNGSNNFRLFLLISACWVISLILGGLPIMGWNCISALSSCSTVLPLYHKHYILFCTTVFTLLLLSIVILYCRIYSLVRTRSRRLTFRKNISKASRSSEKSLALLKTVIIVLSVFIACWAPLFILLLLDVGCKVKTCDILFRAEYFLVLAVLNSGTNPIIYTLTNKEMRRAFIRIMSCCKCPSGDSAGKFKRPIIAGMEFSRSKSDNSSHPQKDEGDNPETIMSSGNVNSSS
Test: […] of [35S]GTPgammaS from human S1P1 receptor expressed in CHO cells
Assay type: functional, cell-based
Conditions: not given

Compound | EC50
Cc1cc(CCC(=O)O)ccc1-c1noc(-c2ccc(OC(C)C)c(C(F)(F)F)c2)n1 | 0.08 nM
Cc1cc(CCC(=O)O)ccc1-c1noc(-c2ccc(OC(C)C)c(C#N)c2)n1 | 0.08 nM
Cc1cc(CC(C)C(=O)O)ccc1-c1noc(-c2ccc(OC(C)C)c(C(F)(F)F)c2)n1 (stereo not drawn) | 0.3 nM
Cc1nc(CCC(=O)O)ccc1-c1noc(-c2ccc(OC(C)C)c(C#N)c2)n1 | 0.44 nM
Cc1cc([C@H]2C[C@H]2C(=O)O)ccc1-c1noc(-c2ccc(OC(C)C)c(C#N)c2)n1 | 0.8 nM
Cc1cc([C@@H]2C[C@H]2C(=O)O)ccc1-c1noc(-c2ccc(OC(C)C)c(C#N)c2)n1 | 0.93 nM and 0.31 nM
Cc1cc(C(C)CC(=O)O)ccc1-c1noc(-c2ccc(OC(C)C)c(C(F)(F)F)c2)n1 (stereo not drawn) | 0.12 nM

Tested on: not listed separately
Test: Plasma clearance in Sprague-Dawley rat at 1.0 mg/kg, iv or 2.0 mg/kg, po
Assay type: ADME, organism-based
Conditions: not given

Compound | clearance [mL/min/kg]
Cc1cc(CC(C)C(=O)O)ccc1-c1noc(-c2ccc(OC(C)C)c(C(F)(F)F)c2)n1 (stereo not drawn) | 7
Cc1nc(CCC(=O)O)ccc1-c1noc(-c2ccc(OC(C)C)c(C#N)c2)n1 | 1.2
Cc1cc([C@H]2C[C@H]2C(=O)O)ccc1-c1noc(-c2ccc(OC(C)C)c(C#N)c2)n1 | 1.2
Cc1cc(C(C)CC(=O)O)ccc1-c1noc(-c2ccc(OC(C)C)c(C(F)(F)F)c2)n1 (stereo not drawn) | 2.9
Cc1cc([C@@H]2C[C@H]2C(=O)O)ccc1-c1noc(-c2ccc(OC(C)C)c(C(F)(F)F)c2)n1 | 2.4

Tested on: Rattus norvegicus
Test: (§1) Volume of distribution at steady state in Sprague-Dawley rat at 1.0 mg/kg, iv or 2.0 mg/kg, po
Assay type: ADME, organism-based
Conditions: in vivo

Compound | Vdss
Cc1cc([C@@H]2C[C@H]2C(=O)O)ccc1-c1noc(-c2ccc(OC(C)C)c(C#N)c2)n1 | 1 L/kg and 0.4 L/kg

Tested on: not listed separately
Test: as §1
Assay type: ADME, organism-based
Conditions: Sprague-Dawley, in vivo, read-out: Vdss

Compound | Vd [L/kg]
Cc1cc(CC(C)C(=O)O)ccc1-c1noc(-c2ccc(OC(C)C)c(C(F)(F)F)c2)n1 (stereo not drawn) | 1.5
Cc1nc(CCC(=O)O)ccc1-c1noc(-c2ccc(OC(C)C)c(C#N)c2)n1 | 0.3
Cc1cc([C@H]2C[C@H]2C(=O)O)ccc1-c1noc(-c2ccc(OC(C)C)c(C#N)c2)n1 | 0.7
Cc1cc(C(C)CC(=O)O)ccc1-c1noc(-c2ccc(OC(C)C)c(C(F)(F)F)c2)n1 (stereo not drawn) | 0.6
Cc1cc([C@@H]2C[C@H]2C(=O)O)ccc1-c1noc(-c2ccc(OC(C)C)c(C(F)(F)F)c2)n1 | 1.1

Biological target: T1, Sphingosine 1-phosphate receptor 4 (Homo sapiens, UniProt O95977)
T1 sequence (O95977 whole entry): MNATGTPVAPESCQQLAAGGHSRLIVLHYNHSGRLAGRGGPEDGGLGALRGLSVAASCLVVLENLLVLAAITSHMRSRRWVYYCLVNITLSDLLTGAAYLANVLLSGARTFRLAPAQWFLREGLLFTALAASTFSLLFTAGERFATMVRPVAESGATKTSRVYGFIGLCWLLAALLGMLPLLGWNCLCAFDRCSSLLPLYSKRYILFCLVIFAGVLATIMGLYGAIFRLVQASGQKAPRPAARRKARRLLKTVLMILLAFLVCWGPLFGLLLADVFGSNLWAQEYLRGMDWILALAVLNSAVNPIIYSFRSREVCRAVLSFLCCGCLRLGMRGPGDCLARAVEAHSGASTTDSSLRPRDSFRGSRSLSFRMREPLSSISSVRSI
Test: Displacement of [33P]S1P from human S1P4 receptor expressed in CHO cells
Assay type: cell-based
Conditions: not given

Compound | IC50 [nM]
Cc1cc(CCC(=O)O)ccc1-c1noc(-c2ccc(OC(C)C)c(C(F)(F)F)c2)n1 | > 10000
Cc1cc(CCC(=O)O)ccc1-c1noc(-c2ccc(OC(C)C)c(C#N)c2)n1 | > 10000
Cc1cc(CC(C)C(=O)O)ccc1-c1noc(-c2ccc(OC(C)C)c(C(F)(F)F)c2)n1 (stereo not drawn) | > 10000
Cc1nc(CCC(=O)O)ccc1-c1noc(-c2ccc(OC(C)C)c(C#N)c2)n1 | > 10000
Cc1cc([C@H]2C[C@H]2C(=O)O)ccc1-c1noc(-c2ccc(OC(C)C)c(C#N)c2)n1 | > 10000
Cc1cc([C@@H]2C[C@H]2C(=O)O)ccc1-c1noc(-c2ccc(OC(C)C)c(C#N)c2)n1 | > 10000
Cc1cc(C(C)CC(=O)O)ccc1-c1noc(-c2ccc(OC(C)C)c(C(F)(F)F)c2)n1 (stereo not drawn) | > 10000
Cc1cc([C@@H]2C[C@H]2C(=O)O)ccc1-c1noc(-c2ccc(OC(C)C)c(C(F)(F)F)c2)n1 | > 10000

Biological target: Sphingosine 1-phosphate receptor 2 (Homo sapiens, UniProt O95136)
Sequence (O95136 whole entry): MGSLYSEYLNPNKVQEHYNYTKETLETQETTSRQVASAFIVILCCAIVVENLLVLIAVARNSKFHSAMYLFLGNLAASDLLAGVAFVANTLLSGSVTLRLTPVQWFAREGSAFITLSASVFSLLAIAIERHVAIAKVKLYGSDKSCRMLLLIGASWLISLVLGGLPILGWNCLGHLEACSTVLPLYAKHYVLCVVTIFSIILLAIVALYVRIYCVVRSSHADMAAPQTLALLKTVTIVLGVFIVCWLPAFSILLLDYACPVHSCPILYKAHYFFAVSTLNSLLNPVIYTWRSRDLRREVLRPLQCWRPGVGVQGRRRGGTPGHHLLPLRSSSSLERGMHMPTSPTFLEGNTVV
Test: Displacement of [33P]S1P from human S1P2 receptor expressed in CHO cells
Assay type: cell-based
Conditions: not given

Compound | IC50 [nM]
Cc1cc(CCC(=O)O)ccc1-c1noc(-c2ccc(OC(C)C)c(C(F)(F)F)c2)n1 | > 10000
Cc1cc(CCC(=O)O)ccc1-c1noc(-c2ccc(OC(C)C)c(C#N)c2)n1 | > 10000
Cc1cc(CC(C)C(=O)O)ccc1-c1noc(-c2ccc(OC(C)C)c(C(F)(F)F)c2)n1 (stereo not drawn) | > 10000
Cc1nc(CCC(=O)O)ccc1-c1noc(-c2ccc(OC(C)C)c(C#N)c2)n1 | > 10000
Cc1cc([C@H]2C[C@H]2C(=O)O)ccc1-c1noc(-c2ccc(OC(C)C)c(C#N)c2)n1 | > 10000
Cc1cc([C@@H]2C[C@H]2C(=O)O)ccc1-c1noc(-c2ccc(OC(C)C)c(C#N)c2)n1 | > 10000
Cc1cc(C(C)CC(=O)O)ccc1-c1noc(-c2ccc(OC(C)C)c(C(F)(F)F)c2)n1 (stereo not drawn) | > 10000
Cc1cc([C@@H]2C[C@H]2C(=O)O)ccc1-c1noc(-c2ccc(OC(C)C)c(C(F)(F)F)c2)n1 | > 10000

Tested on: Rattus norvegicus
Test: (§2) Half life in Sprague-Dawley rat at 1.0 mg/kg, iv or 2.0 mg/kg, po
Assay type: ADME, organism-based
Conditions: in vivo

Compound | t1/2 [h]
Cc1cc([C@@H]2C[C@H]2C(=O)O)ccc1-c1noc(-c2ccc(OC(C)C)c(C#N)c2)n1 | 5.9

Tested on: not listed separately
Test: as §2
Assay type: ADME, organism-based
Conditions: Sprague-Dawley, in vivo

Compound | half-life [h]
Cc1cc(CC(C)C(=O)O)ccc1-c1noc(-c2ccc(OC(C)C)c(C(F)(F)F)c2)n1 (stereo not drawn) | 1.7
Cc1nc(CCC(=O)O)ccc1-c1noc(-c2ccc(OC(C)C)c(C#N)c2)n1 | 2.4
Cc1cc([C@H]2C[C@H]2C(=O)O)ccc1-c1noc(-c2ccc(OC(C)C)c(C#N)c2)n1 | 7.4
Cc1cc([C@@H]2C[C@H]2C(=O)O)ccc1-c1noc(-c2ccc(OC(C)C)c(C#N)c2)n1 | 4.9
Cc1cc(C(C)CC(=O)O)ccc1-c1noc(-c2ccc(OC(C)C)c(C(F)(F)F)c2)n1 (stereo not drawn) | 3.1
Cc1cc([C@@H]2C[C@H]2C(=O)O)ccc1-c1noc(-c2ccc(OC(C)C)c(C(F)(F)F)c2)n1 | 6.3

Biological target: Sphingosine 1-phosphate receptor 3 (Homo sapiens, UniProt Q99500)
Sequence (Q99500 whole entry): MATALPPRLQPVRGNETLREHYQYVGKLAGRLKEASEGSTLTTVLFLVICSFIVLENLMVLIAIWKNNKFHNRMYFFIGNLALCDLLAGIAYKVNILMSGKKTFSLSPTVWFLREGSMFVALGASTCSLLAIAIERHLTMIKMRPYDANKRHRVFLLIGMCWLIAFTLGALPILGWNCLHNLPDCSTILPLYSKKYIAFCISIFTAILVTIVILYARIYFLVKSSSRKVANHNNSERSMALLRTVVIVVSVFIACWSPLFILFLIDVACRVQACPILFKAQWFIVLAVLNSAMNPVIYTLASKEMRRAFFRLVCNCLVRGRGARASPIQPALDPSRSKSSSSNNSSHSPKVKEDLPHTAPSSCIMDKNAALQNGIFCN
Test: […] of [35S]GTP-gamma-S from human S1P3 receptor expressed in CHO cells
Assay type: functional, cell-based
Conditions: not given

Compound | EC50
Cc1cc(CC(C)C(=O)O)ccc1-c1noc(-c2ccc(OC(C)C)c(C(F)(F)F)c2)n1 (stereo not drawn) | 400 nM
Cc1nc(CCC(=O)O)ccc1-c1noc(-c2ccc(OC(C)C)c(C#N)c2)n1 | 2760 nM
Cc1cc([C@H]2C[C@H]2C(=O)O)ccc1-c1noc(-c2ccc(OC(C)C)c(C#N)c2)n1 | > 1000 nM
Cc1cc([C@@H]2C[C@H]2C(=O)O)ccc1-c1noc(-c2ccc(OC(C)C)c(C#N)c2)n1 | 2660 nM and 2600 nM and > 10000 nM
Cc1cc(C(C)CC(=O)O)ccc1-c1noc(-c2ccc(OC(C)C)c(C(F)(F)F)c2)n1 (stereo not drawn) | 184 nM
Cc1cc([C@@H]2C[C@H]2C(=O)O)ccc1-c1noc(-c2ccc(OC(C)C)c(C(F)(F)F)c2)n1 | 123 nM

Tested on: Rattus norvegicus
Test: (§3) Bioavailability in Sprague-Dawley rat at 2.0 mg/kg, po
Assay type: ADME, organism-based
Conditions: in vivo

Compound | F [%]
Cc1cc([C@@H]2C[C@H]2C(=O)O)ccc1-c1noc(-c2ccc(OC(C)C)c(C#N)c2)n1 | 90

Tested on: not listed separately
Test: as §3
Assay type: ADME, organism-based
Conditions: Sprague-Dawley, in vivo

Compound | bioavailability [%]
Cc1cc(CC(C)C(=O)O)ccc1-c1noc(-c2ccc(OC(C)C)c(C(F)(F)F)c2)n1 (stereo not drawn) | 82
Cc1nc(CCC(=O)O)ccc1-c1noc(-c2ccc(OC(C)C)c(C#N)c2)n1 | 93
Cc1cc([C@H]2C[C@H]2C(=O)O)ccc1-c1noc(-c2ccc(OC(C)C)c(C#N)c2)n1 | 89
Cc1cc([C@@H]2C[C@H]2C(=O)O)ccc1-c1noc(-c2ccc(OC(C)C)c(C#N)c2)n1 | 84
Cc1cc(C(C)CC(=O)O)ccc1-c1noc(-c2ccc(OC(C)C)c(C(F)(F)F)c2)n1 (stereo not drawn) | 100
Cc1cc([C@@H]2C[C@H]2C(=O)O)ccc1-c1noc(-c2ccc(OC(C)C)c(C(F)(F)F)c2)n1 | 88
